Results from ChEMBL document CHEMBL4373745, “Design, synthesis and cytotoxicity of BODIPY FL labelled triterpenoids” (Eur J Med Chem, 2020).

Tests used:
A-375 = test: Cytotoxicity against human A375 cells assessed as reduction in cell viability incubated for 96 hrs by SRB assay; format: functional, cell-based; details: A-375, 96 h
HT-29 = test: Cytotoxicity against human HT-29 cells assessed as reduction in cell viability incubated for 96 hrs by SRB assay; format: functional, cell-based; details: HT-29, 96 h
FaDu = test: Cytotoxicity against human FADU cells assessed as reduction in cell viability incubated for 96 hrs by SRB assay; format: functional, cell-based
NIH3T3 = test: Cytotoxicity against mouse NIH/3T3 cells assessed as reduction in cell viability incubated for 96 hrs by SRB assay; format: cell-based; details: NIH3T3, 96 h
MCF7 = test: Cytotoxicity against human MCF7 cells assessed as reduction in cell viability incubated for 96 hrs by SRB assay; format: functional, cell-based; details: MCF7, 96 h
A2780 = test: Cytotoxicity against human A2780 cells assessed as reduction in cell viability incubated for 96 hrs by SRB assay; format: functional, cell-based; details: A2780, 96 h

| SMILES | EC50 (A-375) [µM] | EC50 (HT-29) [µM] | EC50 (FaDu) [µM] | EC50 (NIH3T3) [µM] | EC50 (MCF7) [µM] | EC50 (A2780) [µM] |
| --- | --- | --- | --- | --- | --- | --- |
| C=C(C)[C@@H]1CC[C@]2(CO)CC[C@]3(C)[C@H](CC[C@@H]4[C@@]5(C)CC[C@H](OC(C)=O)C(C)(C)[C@@H]5CC[C@]43C)[C@@H]12 | > 30 | > 30 | > 30 | > 30 | – | – |
| CC(=O)O[C@H]1CC[C@]2(C)[C@H]3CC=C4[C@@H]5[C@@H](C)[C@H](C)CC[C@]5(C(=O)NCCN)CC[C@@]4(C)[C@]3(C)CC[C@H]2C1(C)C | – | 1.8 | 3.7 | 2.6 | 2 | 2.3 |
| CC(=O)O[C@H]1CC[C@]2(C)[C@H]3CC=C4[C@@H]5[C@@H](C)[C@H](C)CC[C@]5(C(=O)N5CCNCC5)CC[C@@]4(C)[C@]3(C)CC[C@H]2C1(C)C | – | – | 1.9 | – | – | – |
| CC(=O)O[C@H]1CC[C@]2(C)[C@H]3CC=C4[C@@H]5CC(C)(C)CC[C@]5(C(=O)N5CCNCC5)CC[C@@]4(C)[C@]3(C)CC[C@H]2C1(C)C | – | – | 1.6 | – | – | – |
| C=C(C)[C@@H]1CC[C@]2(C(=O)N3CCNCC3)CC[C@]3(C)[C@H](CC[C@@H]4[C@@]5(C)CC[C@H](OC(C)=O)C(C)(C)[C@@H]5CC[C@]43C)[C@@H]12 | – | – | 1.3 | – | – | – |
| CC(=O)O[C@H]1CC[C@]2(C)[C@H]3CC=C4[C@@H]5CC(C)(C)CC[C@]5(C(=O)NCCN)CC[C@@]4(C)[C@]3(C)CC[C@H]2C1(C)C | – | 2 | 4.3 | 2.1 | 1.7 | 3.1 |
| CC(=O)O[C@H]1CC[C@]2(C)[C@H]3CC=C4[C@@H]5[C@@H](C)[C@H](C)CC[C@]5(C(=O)N5CCN(C(=O)CCC6=[N+]7C(=Cc8c(C)cc(C)n8[B-]7(F)F)C=C6)CC5)CC[C@@]4(C)[C@]3(C)CC[C@H]2C1(C)C | 21.6 | > 30 | > 30 | > 30 | 24.4 | > 30 |
| C=C(C)[C@@H]1CC[C@]2(C(=O)NCCNC(=O)CCC3=[N+]4C(=Cc5c(C)cc(C)n5[B-]4(F)F)C=C3)CC[C@]3(C)[C@H](CC[C@@H]4[C@@]5(C)CC[C@H](OC(C)=O)C(C)(C)[C@@H]5CC[C@]43C)[C@@H]12 | > 30 | > 30 | > 30 | > 30 | 11.3 | > 30 |
| C=C(C)[C@@H]1CC[C@]2(C(=O)NCCN)CC[C@]3(C)[C@H](CC[C@@H]4[C@@]5(C)CC[C@H](OC(C)=O)C(C)(C)[C@@H]5CC[C@]43C)[C@@H]12 | – | 1 | 1.2 | 1.4 | 1.3 | 1.4 |
| C=C(C)[C@@H]1CC[C@]2(C(=O)N3CCN(C(=O)CCC4=[N+]5C(=Cc6c(C)cc(C)n6[B-]5(F)F)C=C4)CC3)CC[C@]3(C)[C@H](CC[C@@H]4[C@@]5(C)CC[C@H](OC(C)=O)C(C)(C)[C@@H]5CC[C@]43C)[C@@H]12 | > 30 | > 30 | > 30 | > 30 | > 30 | > 30 |
| CC(=O)O[C@H]1CC[C@]2(C)[C@H]3C(=O)C=C4[C@@H]5C[C@@](C)(C(=O)NCCN)CC[C@]5(C)CC[C@@]4(C)[C@]3(C)CC[C@H]2C1(C)C | – | 4.3 | 5.7 | 4.3 | 3.2 | 2 |
| CC(=O)O[C@H]1CC[C@]2(C)[C@H]3C(=O)C=C4[C@@H]5C[C@@](C)(C(=O)N6CCN(C(=O)CCC7=[N+]8C(=Cc9c(C)cc(C)n9[B-]8(F)F)C=C7)CC6)CC[C@]5(C)CC[C@@]4(C)[C@]3(C)CC[C@H]2C1(C)C | 8.3 | > 30 | 8.6 | 9.1 | 7.9 | 7.8 |
| CC(=O)O[C@H]1CC[C@]2(C)[C@H]3C(=O)C=C4[C@@H]5C[C@@](C)(C(=O)N6CCNCC6)CC[C@]5(C)CC[C@@]4(C)[C@]3(C)CC[C@H]2C1(C)C | – | 4.4 | 8.7 | 8.7 | 8.4 | 8.2 |
| CC(=O)O[C@H]1CC[C@]2(C)[C@H]3CC=C4[C@@H]5CC(C)(C)CC[C@]5(C(=O)NCCNC(=O)CCC5=[N+]6C(=Cc7c(C)cc(C)n7[B-]6(F)F)C=C5)CC[C@@]4(C)[C@]3(C)CC[C@H]2C1(C)C | 4.3 | > 30 | 7 | 3.4 | 2.3 | 10.3 |
| C=C(C)[C@@H]1CC[C@]2(COC(=O)CCC3=[N+]4C(=Cc5c(C)cc(C)n5[B-]4(F)F)C=C3)CC[C@]3(C)[C@H](CC[C@@H]4[C@@]5(C)CC[C@H](OC(C)=O)C(C)(C)[C@@H]5CC[C@]43C)[C@@H]12 | > 30 | > 30 | > 30 | > 30 | 28.9 | > 30 |
| CC(=O)O[C@H]1CC[C@]2(C)[C@H]3C(=O)C=C4[C@@H]5C[C@@](C)(C(=O)NCCNC(=O)CCC6=[N+]7C(=Cc8c(C)cc(C)n8[B-]7(F)F)C=C6)CC[C@]5(C)CC[C@@]4(C)[C@]3(C)CC[C@H]2C1(C)C | 23.9 | 26.5 | > 30 | > 30 | 7.2 | 18.4 |
| Cc1cc(C)n2c1C=C1C=CC(CCC(=O)O)=[N+]1[B-]2(F)F | > 30 | > 30 | > 30 | > 30 | > 30 | > 30 |
| CC(=O)O[C@H]1CC[C@]2(C)[C@H]3CC=C4[C@@H]5CC(C)(C)CC[C@]5(C(=O)N5CCN(C(=O)CCC6=[N+]7C(=Cc8c(C)cc(C)n8[B-]7(F)F)C=C6)CC5)CC[C@@]4(C)[C@]3(C)CC[C@H]2C1(C)C | 29.8 | > 30 | > 30 | > 30 | > 30 | > 30 |
| CC(=O)O[C@H]1CC[C@]2(C)[C@H]3CC=C4[C@@H]5[C@@H](C)[C@H](C)CC[C@]5(C(=O)NCCNC(=O)CCC5=[N+]6C(=Cc7c(C)cc(C)n7[B-]6(F)F)C=C5)CC[C@@]4(C)[C@]3(C)CC[C@H]2C1(C)C | 4 | > 30 | 5.7 | 3 | 2.2 | 8.7 |
| C=C(C)[C@@H]1CC[C@]2(COC(C)=O)CC[C@]3(C)[C@H](CC[C@@H]4[C@@]5(C)CC[C@H](OC(=O)CCC6=[N+]7C(=Cc8c(C)cc(C)n8[B-]7(F)F)C=C6)C(C)(C)[C@@H]5CC[C@]43C)[C@@H]12 | – | 3.1 | 4.7 | 9.2 | 4.3 | 2.7 |
| C=C(C)[C@@H]1CC[C@]2(COC(C)=O)CC[C@]3(C)[C@H](CC[C@@H]4[C@@]5(C)CC[C@H](OC(C)=O)C(C)(C)[C@@H]5CC[C@]43C)[C@@H]12 [BETULIN DIACETATE] | > 30 | > 30 | > 30 | > 30 | > 30 | > 30 |
| C=C(C)[C@@H]1CC[C@]2(CO)CC[C@]3(C)[C@H](CC[C@@H]4[C@@]5(C)CC[C@H](O)C(C)(C)[C@@H]5CC[C@]43C)[C@@H]12 [BETULIN] | > 30 | > 30 | > 30 | > 30 | > 30 | > 30 |
| CC1(C)[C@@H](O)CC[C@]2(C)[C@H]3C(=O)C=C4[C@@H]5C[C@@](C)(C(=O)O)CC[C@]5(C)CC[C@@]4(C)[C@]3(C)CC[C@@H]12 [ENOXOLONE] | – | – | > 30 | – | – | – |
| CC1(C)CC[C@]2(C(=O)O)CC[C@]3(C)C(=CC[C@@H]4[C@@]5(C)CC[C@H](O)C(C)(C)[C@@H]5CC[C@]43C)[C@@H]2C1 [OLEANOLIC_ACID] | – | – | > 30 | – | – | > 30 |
| C[C@H]1[C@H](C)CC[C@]2(C(=O)O)CC[C@]3(C)C(=CC[C@@H]4[C@@]5(C)CC[C@H](O)C(C)(C)[C@@H]5CC[C@]43C)[C@H]12 [URSOLIC ACID] | – | – | – | 13.1 | – | – |
